{"source": "patent EP3281632A1", "about": "“ARGON FOR USE IN THE PREVENTION OF BOTH CARDIAC AND CEREBRAL INJURY INDUCED BY ISCHEMIA/REPERFUSION FOLLOWING CARDIAC ARREST” (Societa'Italiana Acetilene & Derivati S.I.A.D. S.p.A. in …, priority 2016, dated 2018)", "key": {"cardiac arrest, pigs": {"system": "cardiac arrest, pigs", "conditions": "cited from earlier work"}, "[1]": {"system": "acute myocardial infarction by LAD occlusion in the rat", "experiment": "Model of acute myocardial infarction by LAD occlusion in the rat", "type": "in vivo", "protocol": "In a model of acute myocardial infarction by LAD occlusion in the rat, ventilation with argon reduced myocardial injury. More in details, the LAD occlusion was removed after 30 min; 5 min before reperfusion, animals were randomized to 1 hour ventilation with: (1) 70% argon - 30% oxygen; or (2) 70% nitrogen - 30% oxygen. […] Moreover, a reduced inflammatory response in terms of neutrophil infiltration in the argon ventilation group compared to control group was observed (72 cells/mm^2 vs. 92 cells/mm^2)."}, "[2]": {"system": "rats resuscitated after cardiac arrest", "conditions": "post resuscitation ventilation with 70% argon, cited from earlier work"}, "[3]": {"system": "cardiac arrest and CPR in the pig", "experiment": "Severe model of cardiac arrest and CPR in the pig, 4 hr ventilation after CPR", "type": "in vivo", "set-up": "circulating levels of hs-cTnT (median): unit not given here", "protocol": "In a severe model of cardiac arrest and CPR in the pig, treatment with inhaled argon allowed for concurrent cardiac and cerebral protection. After 12 min of untreated cardiac arrest and 5 min of CPR, animals were subjected to 4 hr ventilation with (a) 70% argon - 30% 02 or (b) 70% N2 - 30% 02."}, "[4]": {"system": "cardiac arrest and CPR in the rat", "experiment": "Model of cardiac arrest and CPR in the rat, argon ventilation started during CPR", "type": "in vivo", "protocol": "In a model of cardiac arrest and CPR in the rat, treatment with inhaled argon was initiated early, concurrently with chest compression prior to resuscitation. After 7 min of untreated cardiac arrest, 5 min of CPR were initiated and animals were subjected to ventilation with (a) 70% argon - 30% 02 or (b) 70% N2 - 30% 02. The above ventilation strategies were continued up to 2 hrs following resuscitation."}, "[5]": {"system": "left anterior descending coronary artery occlusion (LAD)", "conditions": "rabbits; three 5-min cycles of 70% argon in oxygen prior to 30 min LAD occlusion; in comparison to control ventilation; cited from earlier work"}, "[6]": {"conditions": "during the 4 hr of observation, compared to controls"}, "[7]": {"conditions": "argon during CPR and up to 2 hrs after resuscitation, compared to controls"}}, "data": [{"molecule": "[Ar]", "note": "[argon]", "values": [{"measurement": "neurological recovery", "setting": "cardiac arrest, pigs; 70% argon-30% oxygen after ROSC, in contrast to nitrogen and oxygen", "value": "fast and complete"}, {"measurement": "post resuscitation increase in plasmatic cardiac troponin T", "setting": "cardiac arrest, pigs; 8 min untreated cardiac arrest, 5 min CPR, 70% argon-30% oxygen after ROSC", "value": "three-fold lower"}, {"measurement": "brain injury (histopathology)", "setting": "cardiac arrest, pigs; compared to control", "value": "lesser brain injury"}, {"measurement": "respiratory exchange or arterial blood gases", "setting": "cardiac arrest, pigs; ventilation with argon", "value": "did not impair"}, {"measurement": "plasma level of myocardial troponin T", "setting": "[1]; 30 min LAD occlusion, 1 hour ventilation 70% argon - 30% oxygen from 5 min before reperfusion, after 6 hours, control 7432 ng/l, p < 0.05", "value": 3128, "unit": "ng/L"}, {"measurement": "neutrophil infiltration", "setting": "[1]; LAD occlusion, argon ventilation group, control 92 cells/mm^2", "value": 72, "unit": "cells/mm^2"}, {"measurement": "neurological deficit score", "setting": "[2]; at all time points", "value": "significant improvements"}, {"measurement": "neuronal injury (histology)", "setting": "[2]", "value": "significant reduction"}, {"measurement": "Cerebral Performance Category", "setting": "[3]; 12 min untreated cardiac arrest, 5 min CPR, 4 hr ventilation with 70% argon - 30% 02, control 3.4 ± 1.6", "value": "1.7 ± 1.3"}, {"measurement": "circulating levels of NSE (median)", "setting": "[3]; 4 hr ventilation 70% argon - 30% 02, control 21.2 ng/mL, p not significant", "value": 8.5, "unit": "ng/mL"}, {"measurement": "circulating levels of hs-cTnT (median)", "setting": "[3]; 4 hr ventilation 70% argon - 30% 02, control 8015 ng/mL, p < 0.05", "value": 1332}, {"measurement": "myocardial infarct size", "setting": "[3]; after argon treatment, compared to controls", "value": "significantly lower"}, {"measurement": "heart rate", "setting": "[3]; [6]", "value": "significantly lower"}, {"measurement": "mean arterial pressure", "setting": "[3]; [6]", "value": "higher"}, {"measurement": "stroke volume", "setting": "[3]; [6]", "value": "higher"}, {"measurement": "recovery of systolic myocardial function", "setting": "[3]; evaluated echocardiographically at 96 hr, compared to controls", "value": "significantly better recovery"}, {"measurement": "resuscitation rate", "setting": "[4]; 7 min untreated cardiac arrest, 5 min CPR with 70% argon - 30% 02 ventilation, control 85%", "value": 93, "unit": "%"}, {"measurement": "post resuscitation coronary perfusion pressure", "setting": "[4]; [7]", "value": "higher"}, {"measurement": "post resuscitation mean arterial pressure", "setting": "[4]; [7]", "value": "higher"}, {"measurement": "lactate/pyruvate ratio in the hippocampus", "setting": "[4]; cerebral microdialysis, compared to controls", "value": "lower"}, {"measurement": "left ventricle ejection fraction", "setting": "[4]; compared to the control ventilation", "value": "trend toward better"}, {"measurement": "neurological recovery", "setting": "[4]; compared to those ventilated with nitrogen and oxygen", "value": "significantly faster and better"}, {"measurement": "troponin T release", "setting": "[4]; trend, compared to the control ventilation", "value": "lower"}, {"measurement": "reduction of myocardial infarct size", "setting": "[5]", "value": 22, "unit": "%"}]}]}
